# US20060115815A1 (priority 2002, published 2006)
# Like-named read-outs stand apart in the source and are kept apart here.
# Legend:
# 84V90M = 84V90M (Human immunodeficiency virus type 1 group M subtype B, UniProt P04585, I572V/L578M); experiment: cell-based; set-up: species or system HIV-1
# [1] = molecular target: recombinant HIV-1 protease (Human immunodeficiency virus type 1 group M subtype B, UniProt P04585); experiment: biochemical; assay type: biochemical
# [2] = system: mutant HIV-1 with I84V/L90M mutations in the protease gene; assay type: cell-based
# [3] = system: wild-type HIV-1 strain IIIB; experiment: microbe, parasite or virus in culture; assay type: cell-based
# 46I50V = experiment: microbe, parasite or virus in culture; assay type: cell-based, HIV-1
# 30N82I88D [4] = experiment: microbe, parasite or virus in culture; assay type: cell-based, HIV-1
# WT = experiment: microbe, parasite or virus in culture; assay type: cell-based, HIV-1
# 48V54V82A [5] = experiment: microbe, parasite or virus in culture; assay type: cell-based, HIV-1
# WT HIV-1 = experiment: microbe, parasite or virus in culture; assay type: cell-based
# 30N82I88D [6] = system: 30N82I88D; set-up: species or system HIV-1; details: MT-4, 30N82I88D; read-out: Cell-based assay (MT-4) EC50/nM 30N82I88D
# 48V54V82A [7] = system: 48V54V82A; set-up: species or system HIV-1; details: MT-4, 48V54V82A; read-out: Cell-based assay (MT-4) EC50/nM 48V54V82A
# [8] = system: recombinant HIV-1 strains with resistance mutations in the protease gene; experiment: Cross-resistance profile assay, whole panel of mutant viruses; assay type: cell-based
# [9] = system: PBMC in intact human whole blood
# [10] = Human immunodeficiency virus 1, read-out: Cell-based assay (MT-4) EC50 46I50V
# [11] = Human immunodeficiency virus 1, read-out: Cell-based assay (MT-4) EC50 30N82I88D
# [12] = Human immunodeficiency virus 1, read-out: Cell-based assay (MT-4) EC50 WT
# [13] = Human immunodeficiency virus 1, read-out: Cell-based assay (MT-4) EC50 48V54V82A
# [14] = MT-4, WT, read-out: Cell-based assay (MT-4) EC50/nM WT
# [15] = MT-4, 46I50V, read-out: Cell-based assay (MT-4) EC50 46I50V
# [16] = MT-4, 30N82I88D, read-out: Cell-based assay (MT-4) EC50 30N82I88D
# [17] = read-out: Cell-based assay (MT-4) EC50 WT
# [18] = MT-4, 48V54V82A, read-out: Cell-based assay (MT-4) EC50 48V54V82A
# [19] = Human immunodeficiency virus 1, read-out: EC50 [nM] WT HIV-1
# [20] = fold difference in EC50, mutant vs. wild type
# [21] = Ki (pM), class symbols, Table 10
compound,measurement,setting,value
CCOP(=O)(COCCCN1C(=O)N(Cc2ccc3[nH]nc(N)c3c2)C(Cc2ccccc2)C(O)C(O)C1Cc1ccccc1)OCC (centres unmarked) [OCH2PO3Et2],EC50,84V90M,> 6000 nM
Cc1cccc(C)c1OCC(=O)N[C@@H](Cc1ccc(OCP(=O)(Oc2ccccc2)Oc2ccccc2)cc1)[C@H](O)CN(CC(C)C)S(=O)(=O)c1ccc(N)cc1,Ki,[1]; read-out: Ki,100 to 1000 pM
same,I84V/L90M fold change,[2]; I84V/L90M mutant,++ (>10 to ≦30)
same,EC50,[3]; read-out: EC50,< 50 nM
Nc1n[nH]c2ccc(CN3C(=O)N(Cc4cccc(OCP(=O)(OCc5ccccc5)OCc5ccccc5)c4)C(Cc4ccccc4)C(O)C(O)C3Cc3ccccc3)cc12 (centres unmarked),EC50,46I50V; [10],3120 nM
same,EC50,30N82I88D [4]; [11],705 nM
same,EC50,WT; [12],898 nM
same,EC50,48V54V82A [5]; [13],2600 nM
same,EC50,84V90M,> 6000 nM
CCOP(=O)(COc1ccc(CC2C(O)C(O)C(Cc3ccccc3)N(Cc3ccccc3)C(=O)N2Cc2ccccc2)cc1)OCC (centres unmarked),EC50,"WT HIV-1; Human immunodeficiency virus 1, read-out: Cell-based assay (MT-4) EC50/nM WT",107 nM
Nc1n[nH]c2ccc(CN3C(=O)N(CCCCOCP(=O)(O)O)C(Cc4ccccc4)C(O)C(O)C3Cc3ccccc3)cc12 (centres unmarked) [CH2OCH2PO3H2],EC50,84V90M,> 4240 nM
"O=C1N(Cc2ccccc2)[C@H](Cc2ccccc2)[C@H](O)[C@@H](O)[C@@H](Cc2ccc(O)cc2)N1Cc1ccccc1 [R=H, R1=Ph, R2=OH]",EC50,WT HIV-1; [14],1260 nM
same,EC50,30N82I88D [6],2950 nM
same,EC50,"[2]; MT-4, 84V90M, read-out: Cell-based assay (MT-4) EC50/nM 84V90M",> 6000 nM
same,EC50,48V54V82A [7],> 6000 nM
CCOP(=O)(CCCNC(=O)c1cccc(CN2C(=O)N(Cc3ccc4[nH]nc(N)c4c3)[C@H](Cc3ccccc3)[C@H](O)[C@@H](O)[C@H]2Cc2ccccc2)c1)OCC,EC50,46I50V; [15],319 nM
same,EC50,30N82I88D [4]; [16],666 nM
same,EC50,WT; [17],188 nM
same,EC50,48V54V82A [5]; [18],240 nM
same,EC50,"84V90M; MT-4, 84V90M, read-out: Cell-based assay (MT-4) EC50 84V90M",476 nM
COc1ccc(S(=O)(=O)N(CC(C)C)C[C@@H](O)[C@H](CN2CCc3cc(OCP(=O)(O)OC(C)C(=O)O)ccc3C2)NC(=O)O[C@H]2CO[C@H]3OCC[C@H]32)cc1 (some centres unmarked),Ki,[1]; read-out: Ki,100 to 1000 pM
"CCOP(=O)(COc1ccc(CC2C(O)C(O)C(Cc3ccc(O)cc3)N(Cc3ccc(O)cc3)C(=O)N2Cc2ccc(O)cc2)cc1)OCC (centres unmarked) [OH, Ph-pOH, OCH2PO3Et2]",EC50,46I50V; [15],1110 nM
same,EC50,30N82I88D [4]; [16],211 nM
same,EC50,WT; [17],285 nM
same,EC50,48V54V82A [5]; [18],986 nM
CC(C)CN(CC(O)C(Cc1ccc(OCP(=O)(O)OC(C)C(=O)O)cc1)NC(=O)OC1COC2OCCC12)S(=O)(=O)c1ccc(CN2CCOCC2)cc1 (centres unmarked),Ki,[1]; read-out: Ki,> 1000 pM
CC[C@H](OP(=O)(O)COc1ccc(C[C@H](NC(=O)O[C@H]2CO[C@H]3OCC[C@H]32)[C@H](O)CN(CC(C)C)S(=O)(=O)c2ccc(OC)cc2)cc1)C(=O)O [drawing 659 R1=OH R2=(S)Hba-OH],Ki,[1]; read-out: Ki,10 to 100 pM
"COc1ccc(S(=O)(=O)N(CC(C)C)C[C@@H](O)[C@H](Cc2ccccc2)NC(=O)O[C@H]2CO[C@H]3OCC[C@H]32)cc1 [94-003, reference compound]",EC50,WT HIV-1; [19],0.5 nM
same,Total No. of Resistant Viruses,[8]; {},3
CCCCOC(=O)C(C)OP(=O)(COc1ccc(C[C@H](NC(=O)O[C@H]2CO[C@H]3OCC[C@H]32)[C@H](O)CN(CC(C)C)S(=O)(=O)c2cccc(N)c2)cc1)Oc1ccccc1 (some centres unmarked) [drawing 763],Ki,[1]; read-out: Ki,10 to 100 pM
same,EC50,[3]; read-out: EC50,50 to 500 nM
"CC(C)(C)NC(=O)[C@@H]1C[C@@H]2CCCC[C@@H]2CN1C[C@@H](O)[C@H](Cc1ccccc1)NC(=O)[C@H](CC(N)=O)NC(=O)c1ccc2ccccc2n1 [Saquinavir, reference compound]",EC50,WT HIV-1; [19],4 nM
same,Total No. of Resistant Viruses,[8]; {},4
COc1ccc(S(=O)(=O)N(CC(C)C)CC(O)C(CC2=CCN(CP(=O)(O)OC(C)C(=O)O)CC2)NC(=O)OC2COC3OCCC23)cc1 (centres unmarked),Ki,[1]; read-out: Ki,> 1000 pM
CCOP(=O)(CCn1nc(O)c2cc(CN3C(=O)N(Cc4ccccc4)[C@H](Cc4ccccc4)[C@H](O)[C@@H](O)[C@H]3Cc3ccccc3)ccc21)OCC,IC50,[1]; read-out: Enzymatic assay WT IC50/nM,109 nM
COc1ccc(CN2C(=O)N(Cc3ccc(OCc4ccccc4)cc3)[C@H](Cc3ccccc3)[C@H](O)[C@@H](O)[C@H]2Cc2ccccc2)cc1C#N,EC50,WT HIV-1; [14],5950 nM
same,Ki,[1]; read-out: Enzymatic assay Ki,> 5000 pM
CCOC(=O)C(C)NP(=O)(COc1ccc(CC(NC(=O)OC2COC3OCCC23)C(O)CN(CC(C)C)S(=O)(=O)c2ccc(OC)cc2)cc1)Oc1ccccc1 (centres unmarked) [GS-16571],Total No. of Resistant Viruses,"[8]; of 11 mutant viruses, resistance = 5-fold and higher change in EC50 relative to wild-type",0
same,Intracellular Acid Metabolite Concentration,[9],319 ± 112 µM
same,Intracellular Prodrug Concentration,[9],137 ± 62 µM
same,"Intracellular Prodrug and Metabolites Concentration, uM: Acid Metabolite",[9],319 ± 112 µM
same,Intracellular Prodrug and Metabolites Concentration: Prodrug,[9],137 ± 62 µM
same,Intracellular Prodrug and Metabolites Concentration: Total,[9],432 ± 208 µM
CCOP(=O)(Cc1ccc(CC(NC(=O)OC2COC3OCCC23)C(O)CN(CC(C)C)S(=O)(=O)c2ccc(OC)cc2)cc1)OCC (centres unmarked) [drawing 654 R1=OE R2=OE],Ki,[1]; read-out: Ki,< 10 pM
same,I84V/L90M fold change,[2]; [20],+ (>3 to ≦10)
same,EC50,[3]; read-out: EC50,< 50 nM
COc1ccc(S(=O)(=O)N(CC(C)C)CC(O)C(Cc2ccc(NCP(=O)(NC(C)C(=O)OC(C)C)Oc3ccccc3)cc2)NC(=O)OC2COC3OCCC23)cc1 (centres unmarked) [drawing 704],Ki,[1]; [21],10 to 100 pM
"CC(C)(C)NC(=O)[C@@H]1CN(Cc2cccnc2)CCN1C[C@@H](O)C[C@@H](Cc1ccccc1)C(=O)N[C@H]1c2ccccc2C[C@H]1O [Indinavir, reference compound]",EC50,WT HIV-1; [19],15 nM
same,Total No. of Resistant Viruses,[8]; {},8
Nc1n[nH]c2ccc(CN3C(=O)N(Cc4cccc(OCP(=O)(Oc5ccccc5)Oc5ccccc5)c4)C(Cc4ccccc4)C(O)C(O)C3Cc3ccccc3)cc12 (centres unmarked) [m-OCH2PO3Ph2],EC50,84V90M,> 6000 nM
Nc1n[nH]c2ccc(CN3C(=O)N(Cc4cccc(OCP(=O)(O)Oc5ccccc5)c4)C(Cc4ccccc4)C(O)C(O)C3Cc3ccccc3)cc12 (centres unmarked) [m-OCH2PO3HPh],EC50,84V90M,> 6000 nM
Nc1n[nH]c2ccc(CN3C(=O)N(Cc4cccc(O)c4)C(Cc4ccccc4)C(O)C(O)C3Cc3ccccc3)cc12 (centres unmarked) [m-OH],EC50,46I50V; [10],104 nM
same,EC50,30N82I88D [4]; [11],249 nM
same,EC50,WT; [12],151 nM
same,EC50,48V54V82A [5]; [13],84 nM
same,EC50,84V90M,475 nM
CCOP(=O)(COCCCCN1C(=O)N(Cc2ccc3[nH]nc(N)c3c2)C(Cc2ccccc2)C(O)C(O)C1Cc1ccccc1)OCC (centres unmarked) [CH2OCH2PO3Et2],EC50,84V90M,3300 nM
CCOC(=O)C(C)OP(=O)(CCN(C)Cc1ccc(CC(NC(=O)OC2COC3OCCC23)C(O)CN(CC(C)C)S(=O)(=O)c2ccc(OC)cc2)cc1)Oc1ccccc1 (centres unmarked) [drawing 663 R1=Ph R2=Lac-Et],Ki,[1]; [21],100 to 1000 pM
same,I84V/L90M fold change,[2]; [20],+ (>3 to ≦10)
same,EC50,"[3]; Human immunodeficiency virus 1, IIIB, MT2, class symbols, Table 10",50 to 500 nM
"CCOP(=O)(COc1ccc(CC2C(O)C(O)C(Cc3ccc(OC)cc3)N(Cc3cccc(N)c3)C(=O)N2Cc2cccc(N)c2)cc1)OCC (centres unmarked) [OCH3, Ph-mNH2, OCH2PO3Et2]",EC50,84V90M,535 nM
Nc1n[nH]c2ccc(CN3C(=O)N(Cc4ccc(OCP(=O)(OCc5ccccc5)OCc5ccccc5)cc4)C(Cc4ccccc4)C(O)C(O)C3Cc3ccccc3)cc12 (centres unmarked),EC50,30N82I88D [4]; [11],2120 nM
same,EC50,WT; [12],2700 nM
same,EC50,84V90M,4960 nM
Cc1ccc(C(=O)N[C@@H](Cc2ccc(OCP(=O)(Oc3ccccc3)Oc3ccccc3)cc2)[C@H](O)CN(CC(C)C)S(=O)(=O)c2ccc(N)cc2)cc1O,Ki,[1]; read-out: Ki,100 to 1000 pM
same,I84V/L90M fold change,[2]; I84V/L90M mutant,+ (>3 to ≦10)
same,EC50,[3]; read-out: EC50,50 to 500 nM
CCOP(=O)(COc1cccc(CN2C(=O)N(Cc3ccc4[nH]nc(N)c4c3)C(Cc3ccccc3)C(O)C(O)C2Cc2ccccc2)c1)OCC (centres unmarked),EC50,46I50V; [10],857 nM
same,EC50,30N82I88D [4]; [11],93 nM
same,EC50,WT; [12],665 nM
same,EC50,48V54V82A [5]; [13],513 nM
same,EC50,84V90M,3010 nM
COC(=O)C(C)OP(=O)(COc1ccc(CC(NC(=O)OC2COC3OCCC23)C(O)CN(CC(C)C)S(=O)(=O)c2ccc(OC)cc2)cc1)Oc1ccccc1 [drawing 658 R1=OPh R2=(R)Lac-Me],Ki,[1]; [21],< 10 pM
"CC(C)c1nc(CN(C)C(=O)N[C@H](C(=O)N[C@@H](Cc2ccccc2)C[C@H](O)[C@H](Cc2ccccc2)NC(=O)OCc2cncs2)C(C)C)cs1 [Ritonavir, reference compound]",EC50,WT HIV-1; [19],15 nM
same,Total No. of Resistant Viruses,[8]; {},10
CCOP(=O)(COc1ccc(CN2C(=O)N(Cc3ccc4[nH]nc(N)c4c3)C(Cc3ccccc3)C(O)C(O)C2Cc2ccccc2)cc1)OCC (centres unmarked),EC50,30N82I88D [4]; [11],1340 nM
same,EC50,WT; [12],2480 nM
same,EC50,84V90M,> 6000 nM
CCOP(=O)(CCCNC(=O)c1cccc(CN2C(=O)N(Cc3ccc4[nH]nc(N)c4c3)C(Cc3ccccc3)C(O)C(O)C2Cc2ccccc2)c1)OCC (centres unmarked),EC50,WT; [12],188 nM
same,EC50,84V90M,476 nM
